Reference: patent US11090304B2 (Amgen Inc., priority 2018, dated 2021)
Read-outs that look alike come from different tables or passages of the source.

Columns and labels:
[1] = tested on: Phosphorylation of ERK1/2 in MIA PaCa-2 cells; experiment: Phospho-ERK1/2 MSD assay in MIA PaCa-2 cells; format: cell-based; conditions: read-out: p-ERK IC50 (2 h; MIA PaCa-2), 2 h compound treatment
Description: For compounds in Table 89, the following assay conditions were employed:
Phospho-ERK1/2 MSD Assay:
Sixteen hours prior to compound treatment, MIA PaCa-2 or A549 cells were seeded in 96-well cell culture plates at a density of 25,000 cells/well and incubated at 37° C., 5% CO2. A compound dose-response titration was diluted in growth media, added to appropriate wells of a cell culture plate, and then incubated at 37° C., 5% CO2 for 2 or 4 hours (see Table 15). Following compound treatment, cells were stimulated with 10 ng/mL EGF (Roche 11376454001) for 10 min, washed with ice-cold Dulbecco's phosphate-buffered saline, no Ca^2+ or Mg^2+ (ThermoFisher Scientific 14190144), and then lysed in RIPA buffer (50 mM Tris-HCl pH 7.5, 1% Igepal, 0.5% sodium deoxycholate, 150 mM NaCl, and 0.5% sodium dodecyl sulfate) containing protease inhibitors (Roche 4693132001) and phosphatase inhibitors (Roche 4906837001). Phosphorylation of ERK1/2 in compound-treated lysates was assayed using Phospho-ERK1/2 Whole Cell Lysate kits (Meso Scale Discovery K151DWD) according to the manufacturer's protocol. Assay plates were read on a Meso Scale Discovery Sector Imager 6000, and data were analyzed using a 4-parameter logistic model to calculate IC50 values.

[2] = molecular target: GDP-bound KRAS protein (aa 1-169), containing both G12C and C118A amino acid substitutions (Homo sapiens, UniProt P01116, C118A/G12C); experiment: Coupled nucleotide exchange assay (SOS-mediated, AlphaScreen); format: biochemical; conditions: 5 min compound pre-incubation; for IC50: read-out: Coupled exchange IC50 (5 min)
Chain of GDP-bound KRAS protein (aa 1-169), containing both G12C and C118A amino acid substitutions (P01116 1-169 isoform P01116-2 G12C/C118A): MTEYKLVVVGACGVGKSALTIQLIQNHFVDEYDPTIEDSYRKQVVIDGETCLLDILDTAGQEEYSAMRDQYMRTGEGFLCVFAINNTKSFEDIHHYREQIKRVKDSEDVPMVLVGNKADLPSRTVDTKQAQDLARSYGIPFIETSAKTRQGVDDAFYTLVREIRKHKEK

IC50 ([1]; Homo sapiens, MIA PaCa-2, 2 h) [nM]	Coupled exchange IC50 (5 min) [2]	IC50 [1] [nM]	IC50 [2] [nM]	Compound
918	0.966 | nda μM			C=CC(=O)N1CCN(c2nc(=O)n(-c3c(OC)ncnc3OC)c3nc(-c4c(O)cccc4F)c(Cl)cc23)[C@@H](C)C1 [Example 55-3, 6-chloro-1-(4,6-dimethoxy-5-pyrimidinyl)-7-(2-fluoro-6-hydroxyphenyl)-4-((2S)-methyl-4-(2-propenoyl)-1-piperazinyl)pyrido[2,3-d]pyrimidin-2(1H)-one]
	0.841 | nda μM	984		C=CC(=O)N1CCN(c2nc(=O)n(-c3c(Cl)cccc3C(C)C)c3nc(-c4c(O)cccc4F)c(F)cc23)[C@@H](C)C1 (single isomer, unassigned) [Example 57-15-2]
	0.169 | nda μM	206		C=CC(=O)N1CCN(c2nc(=O)n(-c3c(C)cccc3C3CC3)c3nc(-c4c(O)cccc4F)c(Cl)cc23)[C@@H](C)C1 (single isomer, unassigned) [Example 55-15-1]
64	0.062 | nda μM			C=CC(=O)N1CCN(c2nc(=O)n(-c3c(OC)cccc3C(C)C)c3nc(-c4c(O)cccc4F)c(Cl)cc23)[C@@H](C)C1 [Example 54-73, 6-chloro-7-(2-fluoro-6-hydroxy-phenyl)-1-(2-methoxy-6-(2-propanyl)phenyl)-4-((2S)-2-methyl-4-(2-propenoyl)-1-piperazinyl) pyrido[2,3-d]pyrimidin-2(1H)-one]
	0.047 | nda μM	63		C=CC(=O)N1CCN(c2nc(=O)n(-c3ccccc3C(C)C)c3nc(-c4cc(O)ccc4Cl)c(Cl)cc23)[C@@H](C)C1 (single isomer, unassigned) [Example 54-90-1]
70	0.09 | nda μM			C=CC(=O)N1CCN(c2nc(=O)n(-c3c(C(C)C)cccc3N(C)C)c3nc(-c4ccccc4F)c(Cl)cc23)[C@@H](C)C1 [Example 54-104, 6-chloro-1-(2-(dimethyl-amino)-6-(2-propanyl)phenyl)-7-(2-fluorophenyl)-4-((2S)-2-methyl-4-(2-propenoyl)-1-piperazinyl) pyrido[2,3-d]pyrimidin-2(1H)-one]
1990	0.484 | nda μM			C=CC(=O)N1CCN(c2nc(=O)n(-c3c(C)ccnc3C(C)C)c3nc(-c4cc(O)ccc4F)c(F)cc23)[C@@H](C)C1 [Example 58-5, 6-fluoro-7-(2-fluoro-5-hydroxyphenyl)-1-(4-methyl-2-(2-propanyl)-3-pyridinyl)-4-((2S)-2-methyl-4-(2-propenoyl)-1-piperazinyl)pyrido[2,3-d]pyrimidin-2(1H)-one]
2240	0.262 | nda μM			C=CC(=O)N1CCN(c2nc(=O)n(-c3c(C)ccnc3C(C)C)c3nc(-c4cc(O)c(F)cc4F)c(F)cc23)[C@@H](C)C1 (atropisomer, axis not shown; (M)) [Example 72-7, (M)-7-(2,4-difluoro-5-hydroxyphenyl)-6-fluoro-1-(4-methyl-2-(2-propanyl)-3-pyridinyl)-4-((2S)-2-methyl-4-(2-propenoyl)-1-piperazinyl)pyrido[2,3-d]pyrimidin-2(1H)-one]
212	0.271 | nda μM			C=CC(=O)N1CCN(c2nc(=O)n(-c3ccccc3C(C)C)c3nc(-c4cc(OC)ccc4Cl)c(Cl)cc23)[C@@H](C)C1 [Example 54-89, 6-chloro-7-(2-chloro-5-methoxy-phenyl)-4-((2S)-2-methyl-4-(2-propenoyl)-1-piperazinyl)-1-(2-(2-propanyl)phenyl)pyrido [2,3-d]pyrimidin-2(1H)-one]
	0.368 | nda μM	927		C=CC(=O)N1CCN(c2nc(=O)n(-c3c(OC)cccc3C(C)C)c3nc(-c4c(O)cccc4F)c(Cl)cc23)[C@@H](C)C1 (single isomer, unassigned) [Example 54-73-2]
433	0.159 | nda μM			C=CC(=O)N1CCN(c2nc(=O)n(-c3scnc3CC)c3nc(-c4c(O)cccc4F)c(Cl)cc23)[C@@H](C)C1 [Example 60-22, 6-chloro-1-(4-ethyl-1,3-thiazol-5-yl)-7-(2-fluoro-6-hydroxyphenyl)-4-((2S)-2-methyl-4-(2-propenoyl)-1-piperazinyl)pyrido[2,3-d]pyrimidin-2(1H)-one]
		72	237	C=CC(=O)N1CCN(c2nc(=O)n(-c3ncncc3C(C)C)c3nc(-c4ccccc4F)c(Cl)cc23)[C@@H](C)C1 [Example 99, 6-Chloro-7-(2-fluorophenyl)-4-((2S)-2-methyl-4-(2-propenoyl)-1-piperazinyl)-1-(5-(2-propanyl)-4-pyrimidinyl)pyrido[2,3-d]pyrimidin-(1H)-one]
214	0.24 | nda μM			C=CC(=O)N1CCN(c2nc(=O)n(-c3c(C)cccc3CC)c3nc(-c4ccccc4F)c(Cl)cc23)[C@@H](C)C1 [Example 55-9, 6-chloro-1-(2-ethyl-6-methylphenyl)-7-(2-fluorophenyl)-4-((2S)-2-methyl-4-(2-propenoyl)-1-piperazinyl)pyrido[2,3-d]pyrimidin-2(1H)-one]
235	0.309 | nda μM			C=CC(=O)N1CCN(c2nc(=O)n(-c3c(C)noc3C(C)C)c3nc(-c4ccccc4F)c(Cl)cc23)[C@@H](C)C1 [Example 55-11, 6-chloro-7-(2-fluoropheny)-1-(3-methyl-5-(2-propanyl)-1,2-oxazol-4-yl)-4-((2S)-2-methyl-4-(2-propenoyl)-1-piperazinyl)pyrido[2,3-d]pyrimidin-2(1H)-one]
210	0.035 | nda μM			C=CC(=O)N1CCN(c2nc(=O)n(-c3c(C(C)C)cccc3N(C)C)c3nc(-c4ccccc4F)c(Cl)cc23)[C@@H](C)C1 (single isomer, unassigned) [Example 54-104-2]
619	0.521 | nda μM			C=CC(=O)N1CCN(c2nc(=O)n(-c3c(F)cccc3C(C)C)c3nc(-c4ccccc4F)c(F)cc23)[C@@H](C)C1 [Example 59-3, 6-fluoro-7-(2-fluorophenyl)-1-(2-fluoro-6-(2-propanyl)phenyl)-4-((2S)-2-methyl-4-(2-propenoyl)-1-piperazinyl)pyrido[2,3-d]pyrimidin-2(1H)-one]
		21	84	C=CC(=O)N1CCN(c2nc(=O)n(-c3c(CN(C)C)ccnc3C(C)C)c3nc(-c4ccccc4F)c(Cl)cc23)[C@@H](C)C1 (atropisomer, axis not shown; (M)) [Example 152, (M)-6-Chloro-1-(4-((dimethylamino)methyl)-2-(2-propanyl)-3-pyridinyl)-7-(2-fluorophenyl)-4-((2S)-2-methyl-4-(2-propenoyl)-1-piperazinyl)pyrido[2,3-d]pyrimidin-2(1H1)-one]
215	0.091 | nda μM			C=CC(=O)N1CCN(c2nc(=O)n(-c3c(O)cccc3C(C)C)c3nc(-c4ccccc4F)c(Cl)cc23)[C@@H](C)C1 [Example 55-26, 6-chloro-7-(2-fluorophenyl)-1-(2-hydroxy-6-(2-propanyl)phenyl)-4-((2S)-2-methyl-4-(2-propenoyl)-1-piperazinyl)pyrido[2,3-d]pyrimidin-2(1H)-one]
